± gives the uncertainty stated by the source.
Assay: xn = mol fraction of the nth substance listed

OC[C@H]1O[C@@](CO)(O[C@H]2O[C@H](CO)[C@@H](O)[C@H](O)[C@H]2O)[C@@H](O)[C@@H]1O + CCCC[N+](C)(CCCC)CCCC.[Cl-] + O
viscosity (293.15 K, 101.3 kPa, x1 = 0.0003585, x2 = 0): 1.016 ± 0.016 mPa·s | viscosity (293.15 K, 101.3 kPa, x1 = 0.0007185, x2 = 0): 1.038 ± 0.016 mPa·s | viscosity (293.15 K, 101.3 kPa, x1 = 0.001078, x2 = 0): 1.059 ± 0.016 mPa·s | viscosity (293.15 K, 101.3 kPa, x1 = 0.00144, x2 = 0): 1.081 ± 0.016 mPa·s | viscosity (293.15 K, 101.3 kPa, x1 = 0.001799, x2 = 0): 1.094 ± 0.016 mPa·s | viscosity (293.15 K, 101.3 kPa, x1 = 0.002163, x2 = 0): 1.112 ± 0.016 mPa·s | viscosity (293.15 K, 101.3 kPa, x1 = 0.002507, x2 = 0): 1.133 ± 0.016 mPa·s | viscosity (298.15 K, 101.3 kPa, x1 = 0.0003585, x2 = 0): 0.906 ± 0.016 mPa·s | viscosity (298.15 K, 101.3 kPa, x1 = 0.0007185, x2 = 0): 0.921 ± 0.016 mPa·s | viscosity (298.15 K, 101.3 kPa, x1 = 0.001078, x2 = 0): 0.935 ± 0.016 mPa·s | viscosity (298.15 K, 101.3 kPa, x1 = 0.00144, x2 = 0): 0.957 ± 0.016 mPa·s | viscosity (298.15 K, 101.3 kPa, x1 = 0.001799, x2 = 0): 0.972 ± 0.016 mPa·s | viscosity (298.15 K, 101.3 kPa, x1 = 0.002163, x2 = 0): 0.987 ± 0.016 mPa·s | viscosity (298.15 K, 101.3 kPa, x1 = 0.002507, x2 = 0): 1.006 ± 0.016 mPa·s | viscosity (303.15 K, 101.3 kPa, x1 = 0.0003585, x2 = 0): 0.807 ± 0.015 mPa·s | viscosity (303.15 K, 101.3 kPa, x1 = 0.0007185, x2 = 0): 0.817 ± 0.015 mPa·s | viscosity (303.15 K, 101.3 kPa, x1 = 0.001078, x2 = 0): 0.83 ± 0.015 mPa·s | viscosity (303.15 K, 101.3 kPa, x1 = 0.00144, x2 = 0): 0.847 ± 0.015 mPa·s | viscosity (303.15 K, 101.3 kPa, x1 = 0.001799, x2 = 0): 0.861 ± 0.015 mPa·s | viscosity (303.15 K, 101.3 kPa, x1 = 0.002163, x2 = 0): 0.878 ± 0.015 mPa·s | viscosity (303.15 K, 101.3 kPa, x1 = 0.002507, x2 = 0): 0.891 ± 0.015 mPa·s | viscosity (308.15 K, 101.3 kPa, x1 = 0.0003585, x2 = 0): 0.725 ± 0.015 mPa·s | viscosity (308.15 K, 101.3 kPa, x1 = 0.0007185, x2 = 0): 0.733 ± 0.015 mPa·s | viscosity (308.15 K, 101.3 kPa, x1 = 0.001078, x2 = 0): 0.745 ± 0.015 mPa·s | viscosity (308.15 K, 101.3 kPa, x1 = 0.00144, x2 = 0): 0.759 ± 0.015 mPa·s | viscosity (308.15 K, 101.3 kPa, x1 = 0.001799, x2 = 0): 0.772 ± 0.015 mPa·s | viscosity (308.15 K, 101.3 kPa, x1 = 0.002163, x2 = 0): 0.786 ± 0.015 mPa·s | viscosity (308.15 K, 101.3 kPa, x1 = 0.002507, x2 = 0): 0.8 ± 0.015 mPa·s | viscosity (313.15 K, 101.3 kPa, x1 = 0.0003585, x2 = 0): 0.657 ± 0.015 mPa·s | viscosity (313.15 K, 101.3 kPa, x1 = 0.0007185, x2 = 0): 0.664 ± 0.015 mPa·s | viscosity (313.15 K, 101.3 kPa, x1 = 0.001078, x2 = 0): 0.674 ± 0.015 mPa·s | viscosity (313.15 K, 101.3 kPa, x1 = 0.00144, x2 = 0): 0.683 ± 0.015 mPa·s | viscosity (313.15 K, 101.3 kPa, x1 = 0.001799, x2 = 0): 0.697 ± 0.015 mPa·s | viscosity (313.15 K, 101.3 kPa, x1 = 0.002163, x2 = 0): 0.71 ± 0.015 mPa·s | viscosity (313.15 K, 101.3 kPa, x1 = 0.002507, x2 = 0): 0.721 ± 0.015 mPa·s

CCCCCCCCCC(=O)O + CCCC[N+](CCCC)(CCCC)CCCC.[Cl-]
electrical conductivity (293.15 K, 100 kPa, x2 = 0.25): 0.00575 ± 0.00058 S/m | viscosity (293.15 K, 100 kPa, x2 = 0.25): 201 ± 37 mPa·s | electrical conductivity (303.15 K, 100 kPa, x2 = 0.25): 0.00886 ± 0.00089 S/m | viscosity (303.15 K, 100 kPa, x2 = 0.25): 135 ± 18 mPa·s | electrical conductivity (313.15 K, 100 kPa, x2 = 0.25): 0.0133 ± 0.0013 S/m | viscosity (313.15 K, 100 kPa, x2 = 0.25): 93.3 ± 7.8 mPa·s | viscosity (313.15 K, 100 kPa, x2 = 0.333): 155 ± 18 mPa·s | electrical conductivity (323.15 K, 100 kPa, x2 = 0.25): 0.0194 ± 0.0019 S/m | viscosity (323.15 K, 100 kPa, x2 = 0.25): 65.9 ± 2.6 mPa·s | electrical conductivity (333.15 K, 100 kPa, x2 = 0.25): 0.0277 ± 0.0028 S/m | viscosity (333.15 K, 100 kPa, x2 = 0.25): 47.5 ± 1.6 mPa·s | viscosity (343.15 K, 100 kPa, x2 = 0.333): 39.5 ± 1.9 mPa·s

CC(=O)O.CC(=O)[O-].CC[NH+](CC)CCO + CCCC[n+]1ccn(C)c1.COP(=O)([O-])OC
viscosity (278.15 K, 101 kPa, x1 = 0.3316): 453 ± 17 mPa·s | viscosity (278.15 K, 101 kPa, x1 = 0.5275): 335 ± 11 mPa·s | viscosity (283.15 K, 101 kPa, x1 = 0.7493): 220 ± 6.5 mPa·s | viscosity (288.15 K, 101 kPa, x1 = 0.5275): 168.3 ± 4.1 mPa·s | viscosity (293.15 K, 101 kPa, x1 = 0.0748): 568 ± 20 mPa·s | viscosity (293.15 K, 101 kPa, x1 = 0.7493): 116.3 ± 2.9 mPa·s | viscosity (298.15 K, 101 kPa, x1 = 0.5275): 93.7 ± 2 mPa·s | viscosity (298.15 K, 101 kPa, x1 = 0.6343): 91.1 ± 2 mPa·s | viscosity (298.15 K, 101 kPa, x1 = 0.8567): 76.9 ± 1.9 mPa·s | viscosity (303.15 K, 101 kPa, x1 = 0.0748): 283.6 ± 7.4 mPa·s | viscosity (303.15 K, 101 kPa, x1 = 1): 59.6 ± 1.6 mPa·s | viscosity (308.15 K, 101 kPa, x1 = 0.3316): 74.6 ± 1.4 mPa·s | viscosity (308.15 K, 101 kPa, x1 = 0.7493): 53.4 ± 1.2 mPa·s | viscosity (313.15 K, 101 kPa, x1 = 0.5275): 44.19 ± 0.86 mPa·s | viscosity (313.15 K, 101 kPa, x1 = 0.6343): 42.6 ± 0.9 mPa·s | viscosity (318.15 K, 101 kPa, x1 = 0.8567): 27.56 ± 0.67 mPa·s | viscosity (323.15 K, 101 kPa, x1 = 0.5275): 30.28 ± 0.59 mPa·s | viscosity (323.15 K, 101 kPa, x1 = 0.6343): 29.17 ± 0.61 mPa·s | viscosity (323.15 K, 101 kPa, x1 = 0.8567): 22.27 ± 0.54 mPa·s | viscosity (328.15 K, 101 kPa, x1 = 0.0748): 73.3 ± 1 mPa·s | viscosity (328.15 K, 101 kPa, x1 = 0.4263): 27.4 ± 0.5 mPa·s | viscosity (328.15 K, 101 kPa, x1 = 0.7493): 23.34 ± 0.53 mPa·s | viscosity (333.15 K, 101 kPa, x1 = 0.6343): 18.02 ± 0.38 mPa·s | viscosity (333.15 K, 101 kPa, x1 = 0.7493): 17.41 ± 0.39 mPa·s | viscosity (338.15 K, 101 kPa, x1 = 0.0748): 47.83 ± 0.65 mPa·s | viscosity (343.15 K, 101 kPa, x1 = 0.7493): 13.68 ± 0.31 mPa·s | viscosity (348.15 K, 101 kPa, x1 = 0.6343): 12.02 ± 0.25 mPa·s | viscosity (348.15 K, 101 kPa, x1 = 1): 8.93 ± 0.23 mPa·s | viscosity (358.15 K, 101 kPa, x1 = 0.5275): 9.3 ± 0.18 mPa·s | viscosity (358.15 K, 101 kPa, x1 = 0.8567): 6.94 ± 0.17 mPa·s | viscosity (358.15 K, 101 kPa, x1 = 1): 6.65 ± 0.17 mPa·s | viscosity (363.15 K, 101 kPa, x1 = 1): 5.8 ± 0.15 mPa·s | viscosity (368.15 K, 101 kPa, x1 = 0.5275): 7.03 ± 0.14 mPa·s | viscosity (368.15 K, 101 kPa, x1 = 0.6343): 6.64 ± 0.14 mPa·s
